Test results as given in patent US20250262308A1, “Compositions and Methods for Modulating Dopamine Receptor Activity” (The Regents of the University of California, priority 2022, published 2025).

Legend:
[1] = biological target: T1, D2R (Homo sapiens, UniProt P14416); experiment: GIRK activation assay, whole-cell patch clamp, HEK293T co-transfected with M, D2R and GIRK1 (F137S); assay type: cell-based; settings: for photo-agonism of D2R (GIRK inward current): P tethered to M, compared with saturating dopamine (1 μM)
T1 construct: expressed in transfected cells; host or cells: HEK293T
Description: D2R photo-activation was evaluated in a G protein-activated inwardly rectifying K^+ channel (GIRK) activation assay. The M anchoring protein was re-designed by substituting the SNAP-tag at its external N-terminal with a HALO-tag (FIG. 3A). HEK293T were co-transfected with M, D2R and the homotetramerizing mutant of GIRK1 (F137S), making it possible to detect D2R activation as Gi/o-dependent GIRK inward-current at high external K^+ and negative holding potential. Transfected cells were patch clamped in whole-cell configuration and alternately irradiated with 440 nm light or perfused with a saturating (1 μM) concentration of dopamine to elicit maximal D2R activation.
(A) Schematic representation of D2R activation by MP-D2ago in response to light. (B, C) Representative traces of MP-D2ago with one (1×; B) or two (2×; C) branch points. (D) Summary of the maximal photo-activation of D2R by MP-D2ago relative to a saturating concentration of DA (1 μM). […] Summary of the activation and deactivation kinetics (E) and light sensitivity (F) of D2R in response to 1× or 2×MP-D2ago.
To complement our cell-targeted D2R photo-agonist, a tethered photo-antagonist for D2R was designed. The same photoswitch architecture was employed; however, in this case, one of two substituted phenyl piperazines was used as a head group (FIG. 5A). Two variant phenyl piperazines, 2,3-dichloro- and 2-methoxy-phenylpiperazine, were chosen as the core scaffold. To each of these, we appended a 3-carbon (C3) linker followed by the same PEG- and HALO substrate employed in the synthesis of P-D2ago, thereby generating potential photo-antagonists. […] A 4-carbon linker at this position was tested.
FIG. 5A-5G: Evaluation of phenylpiperazine-based MPs of D2R in HEK293T cells. A) Chemical structures of P-D2 constructs used to label the M protein. B) Schematic representation MP-D2block,C3 and MP-D2pa,C3 activity under light irradiation. CD) Patch clamp electrophysiology traces of tethered partial agonists. E) Schematic representation of dopamine blocking by MP-D2block under light irradiation. F,G) Patch clamp electrophysiology traces of tethered D2 antagonist.

[2] = UV/Vis photophysical characterization of the photoswitch; assay type: physicochemical
Description: FIG. 2A-2E. Synthesis of P-D2ago and photophysical characterization. A) Chemical Synthesis of P-D2ago. B) UV Vis absorbance spectra of P-D2ago (20 μM in DMSO, 24° C.) in the dark and under 415 nm irradiation. C) Wavelength scan for P-D2ago (20 μM, DMSO, 24° C.). Each wavelength is applied for 2 minutes. […] E) Thermal relaxation of P-D2ago in DMSO after 1 minute irradiation with 415 nm at 37° C. F) Synthesis of branched, photoswitchable amino indenyl dimer P-D2ago-2X.
UV Vis data were analyzed and plotted using […] Prism. Irradiation was achieved from the top of the cuvette through a fiber-optic cable. […] Absorbance (reported as Abs, in arbitrary units) was measured at 420 nm over time. Thermal Relaxation was measured after 1 min irradiation with 415 nm at 10 or 20 μM, and subsequently absorption increase was detected at 420 nm. The relaxation half-live of the cis-isomer was determined by curve fitting, using exponential one-phase decay in […] Prism. Photostationary states were determined by pre-irradiation of samples (20 uM, DMSO) for 10 min at the respective wavelengths. Samples for LCMS separation were prepared under red-light conditions in amber vials and immediately subjected to LCMS.
FIG. 8A-8E: Photophysical Characterization of P-D1block(24) A) UV Vis absorption spectra of dark-adapted (100% trans) P-D1block(24) in DMSO (20 μM), and after preirradiation with 370/460 nm for 10 min. […] C) Photostationary state (PSS) of P-D1block(24) in DMSO (20 μM, 24° C.), after preirradiation with 360/420 nm for 10 min. Detection of PSS was achieved by LCMS by separation of isomers and integration of Abs at the isosbestic point of cis- and trans-isomers at the respective elution solvent mixtures. D, E) Thermal relaxation of P-D1block(24) in 10% DMSO in PBS and 100% DMSO at 37° C., detection of Abs at 340 nm after pre-irradiation of the samples for 10 min at 360 nm.

T1 sequence (P14416 whole entry): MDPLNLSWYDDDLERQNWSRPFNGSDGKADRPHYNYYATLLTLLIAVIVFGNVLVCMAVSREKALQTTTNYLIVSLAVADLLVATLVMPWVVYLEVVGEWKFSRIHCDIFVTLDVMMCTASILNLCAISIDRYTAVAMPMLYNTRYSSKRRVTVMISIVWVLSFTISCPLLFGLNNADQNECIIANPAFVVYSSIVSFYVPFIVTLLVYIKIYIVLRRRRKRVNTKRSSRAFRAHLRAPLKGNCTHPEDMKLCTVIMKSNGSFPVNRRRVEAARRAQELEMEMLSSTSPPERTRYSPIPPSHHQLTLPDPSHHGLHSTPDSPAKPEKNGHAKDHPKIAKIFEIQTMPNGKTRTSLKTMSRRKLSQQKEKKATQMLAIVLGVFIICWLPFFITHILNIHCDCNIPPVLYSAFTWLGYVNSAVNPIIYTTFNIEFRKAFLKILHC

| SMILES | photo-agonism of D2R (GIRK inward current) ([1]; 440 nm light) | photo-antagonism of D2R activation by dopamine ([1]; tethered to M, 440 nm light, 1 uM dopamine) | reversible switching ([2]; 20 μM in DMSO, alternating irradiation) | thermal back-relaxation in aqueous environment ([2]; 10% DMSO in PBS) | absorption maximum ([2]; UV/Vis, 20 μM in DMSO, 24° C.) [nm] | wavelength of maximal switching into the cis-form (maximum PSS) ([2]; wavelength scan, 20 μM, DMSO, 24° C.) [nm] | sensitivity to light, greater than P-D2ago ([1]; tethered to M) [fold] | activation kinetics, faster than P-D2ago ([1]; tethered to M, 440 nm light) [fold] |
| --- | --- | --- | --- | --- | --- | --- | --- | --- |
| COc1ccccc1N1CCNCC1 [2-methoxy-phenylpiperazine] | very weak partial agonism | very weak antagonism |  |  |  |  |  |  |
| CCCN(CCCCNc1ccc(/N=N/c2ccc(NC(=O)CCOCCOCCOCCOCCOCCOCCOCCOCCOCCOCCOCCOCCOCCOCCOCCOCCOCCOCCOCCOCCOCCOCCOCCOCCNC(=O)CCC(=O)NCCOCCOCCCCCCCl)cc2)cc1)C1Cc2ccccc2C1 [P-D2ago] | full photo-agonism |  | without fatigue | exceeds the detection limit | 424 | 440 |  |  |
| CCCN(CCCCNc1ccc(/N=N/c2ccc(NC(=O)CCOCCOCCOCCOCCOCCOCCOCCOCCOCCOCCOCCOCCOCCOCCOCCOCCOCCOCCOCCOCCOCCOCCOCCOCCNC(=O)CCC(NC(=O)CCC(=O)NCCOCCOCCCCCCCl)C(=O)NCCOCCOCCOCCOCCOCCOCCOCCOCCOCCOCCOCCOCCOCCOCCOCCOCCOCCOCCOCCOCCOCCOCCOCCOCCC(=O)Nc3ccc(/N=N/c4ccc(NCCCCN(CCC)C5Cc6ccccc6C5)cc4)cc3)cc2)cc1)C1Cc2ccccc2C1 (stereo not shown) [2X-P-D2ago] | same maximal activation |  |  |  |  |  | ~5 | ~2 |
